{"source": "paper PMC6108829", "about": "(Environmental Health Perspectives, 2018)", "key": {"[1]": {"assay": "PBPK model parametrization and calibration with biomonitoring data", "parameters": "species or system human", "settings": "basic BPA model", "method": "It consists of the compartments titled serum, liver, fat, skin, gonads, brain, “richly perfused tissue,” “slowly perfused tissue”, and two single-compartment submodules for BPA-g and BPA-s in serum (see Figure 2). In the compartment titled “richly perfused tissue,” compartments were lumped with a perfusion greater than 0.1mL/min/g tissue (heart, kidneys, small and large intestine, pancreas, spleen, and stomach), and in the compartment titled “slowly perfused tissue,” compartments were lumped with a perfusion smaller than 0.1mL/min/g tissue (muscle and skeleton) ([Edginton et al. 2006]; [ICRP 2002], see Table S1 for the aggregated parameters). […] Fixing the scaling error caused the aforementioned discrepancy, and we had to review and readjust the model parameters to the biomonitoring data.\nIn a first step to readjust and further develop the PBPK model, we collected all studies that investigated the metabolism parameters used in the model and gathered data from different studies that measured the same metabolism routes (see Table S2). […] For this purpose, we calculated the mean relative deviation (MRD) and average fold error (AFE) to assess precision and bias of the model predictions using Equations 1 and 2 ([Sheiner and Beal 1981]), as done previously ([Ito and Houston 2005]; [Vogt 2014]; [Yang et al. 2015]). […]"}, "[2]": {"assay": "Margin of exposure (MOE = EC50/Cmax) back-of-the-envelope calculation", "parameters": "species or system human"}, "[3]": {"test_system": "human breast-cancer cell lines", "parameters": "method as in Walsh et al. (2005)", "settings": "ref Walsh et al. (2005), read-out: EC50 for an increase of calcium ion concentration; cited from earlier work"}, "liver [4]": {"test_system": "liver", "settings": "cited from earlier work"}, "small intestine": {"test_system": "small intestine", "settings": "cited from earlier work"}, "liver [5]": {"test_system": "liver", "settings": "ref Kurebayashi et al. (2010), cited from earlier work"}, "[6]": {"settings": "determined experimentally, ref Doerge et al. (2011), cited from earlier work"}, "[7]": {"settings": "cited from earlier work"}, "[8]": {"settings": "in vivo; cited from earlier work"}, "[9]": {"settings": "cited from earlier work", "remark": "listed apart in the source"}, "[10]": {"settings": "ref Schönfelder et al. (2002); cited from earlier work"}, "[11]": {"settings": "cited from earlier work", "remark": "listed apart in the source"}, "[12]": {"settings": "ref Csanády et al. 2002; cited from earlier work"}, "[13]": {"settings": "EC50 (Kitamura et al. 2005)/highest Cmax of basic PBPK model (Table 9)"}, "[14]": {"settings": "basic PBPK model, ref Yang et al. (2015)"}}, "note": "Values joined by “and” are separate entries in the source; they are usually repeats but may differ in a detail not shown here. Equal values may be shown once. Read-outs that look alike come from different tables or passages of the source. Marks after values point to notes of the source that are not given here."}
{"smiles": "CC(C)(c1ccc(O)cc1)c1ccc(O)cc1", "note": "[BPA, bisphenol A]", "values": [{"measurement": "vmax of hepatic sulfation, times lower than that of hepatic glucuronidation", "setting": "[1]", "result": "about 60 times"}, {"measurement": "MOE in gonads", "setting": "[2]; [13]", "result": "4,670"}, {"measurement": "MOE in serum", "setting": "[2]; [13]", "result": "12,000"}, {"measurement": "MOE in serum of females", "setting": "[2]; EC50 of Walsh et al. (2005), Cmax P95/P95", "result": 1.25}, {"measurement": "MOE in fetal serum", "setting": "[2]; EC50 of Walsh et al. (2005), worst-case accumulation in the fetus", "result": 0.179}, {"measurement": "EC50", "setting": "[3]", "result": 100, "unit": "pM"}, {"measurement": "Hepatic glucuronidation vmax ±SD", "setting": "liver [4]; arithmetic mean of female and male kinetics, ref Elsby et al. (2001)", "result": "333 ± 21 nmol/h/mg microsomal protein"}, {"measurement": "Hepatic glucuronidation vmax ±SD", "setting": "liver [4]; arithmetic mean of female and male kinetics, ref Kuester and Sipes (2007)", "result": "85.2 ± 31.4 nmol/h/mg microsomal protein"}, {"measurement": "Hepatic glucuronidation vmax ±SD", "setting": "liver [4]; arithmetic mean of female and male kinetics, ref Mazur et al. (2010)", "result": "190 ± 16.9 nmol/h/mg microsomal protein"}, {"measurement": "Hepatic glucuronidation vmax range", "setting": "liver [4]; range of published values, ref Coughlin et al. (2012), Kurebayashi et al. (2010), Trdan Lušin et al. (2012), Elsby et al. (2001), Kuester and Sipes (2007), Mazur et al. (2010), Street et al. (2017)", "result": "1,270–16,300^c nmol/h/g liver"}, {"measurement": "Km", "setting": "liver [4]; read-out: Hepatic glucuronidation Km ±SD, arithmetic mean of female and male kinetics, ref Elsby et al. (2001)", "result": 71.9, "unit": "µM"}, {"measurement": "Km", "setting": "liver [4]; read-out: Hepatic glucuronidation Km ±SD, arithmetic mean of female and male kinetics, ref Kuester and Sipes (2007)", "result": 8.5, "unit": "µM"}, {"measurement": "Km", "setting": "liver [4]; read-out: Hepatic glucuronidation Km ±SD, arithmetic mean of female and male kinetics, ref Mazur et al. (2010)", "result": 4.25, "unit": "µM"}, {"measurement": "Km", "setting": "liver [4]; read-out: Hepatic glucuronidation Km ±SD, ref Street et al. (2017)", "result": 23, "unit": "µM"}, {"measurement": "Km", "setting": "liver [4]; read-out: Hepatic glucuronidation Km ±SD, ref Trdan Lušin et al. (2012)", "result": 8.9, "unit": "µM"}, {"measurement": "Km", "setting": "liver [4]; read-out: Hepatic glucuronidation Km, n=1, ref Kurebayashi et al. (2010)", "result": 5.3, "unit": "µM"}, {"measurement": "Km", "setting": "liver [4]; read-out: Hepatic glucuronidation Km, used in basic model, ref Coughlin et al. (2012)", "result": 45.8, "unit": "µM"}, {"measurement": "Hepatic glucuronidation vmax - used in basic model", "setting": "liver [4]; ref Coughlin et al. (2012)", "result": "9,040^a nmol/h/g liver"}, {"measurement": "Hepatic glucuronidation vmax ±SD", "setting": "liver [4]; ref Coughlin et al. (2012)", "result": "283 ± 18 nmol/h/mg microsomal protein"}, {"measurement": "Hepatic glucuronidation vmax", "setting": "liver [4]; ref Kurebayashi et al. (2010)", "result": "39.8 nmol/h/mg microsomal protein"}, {"measurement": "Hepatic glucuronidation vmax ±SD", "setting": "liver [4]; ref Street et al. (2017)", "result": "270 ± 60 nmol/h/mg microsomal protein"}, {"measurement": "Hepatic glucuronidation vmax ±SD", "setting": "liver [4]; ref Trdan Lušin et al. (2012)", "result": "510 ± 18 nmol/h/mg microsomal protein"}, {"measurement": "Km", "setting": "small intestine; read-out: Glucuronidation in enterocytes / intestinal glucuronidation Km, used in basic model, ref Trdan Lušin et al. (2012)", "result": 58.4, "unit": "µM"}, {"measurement": "Km", "setting": "small intestine; read-out: Glucuronidation in enterocytes Km range, ref Trdan Lušin et al. (2012), Mazur et al. (2010)", "result": "58.4 to 80.1", "unit": "µM"}, {"measurement": "Km", "setting": "small intestine; read-out: Intestinal glucuronidation Km ±SD, ref Mazur et al. (2010)", "result": 80.1, "unit": "µM"}, {"measurement": "Intestinal glucuronidation vmax ±SD", "setting": "small intestine; ref Mazur et al. (2010)", "result": "29.2 ± 7.2 nmol/h/mg microsomal protein"}, {"measurement": "Glucuronidation in enterocytes vmax range", "setting": "small intestine; ref Trdan Lušin et al. (2012), Mazur et al. (2010)", "result": "125–361^j nmol/h/g liver"}, {"measurement": "Glucuronidation in enterocytes vmax - used in basic model", "setting": "small intestine; ref Trdan Lušin et al. (2012)", "result": "361^i nmol/h/g bw"}, {"measurement": "Intestinal glucuronidation vmax ±SD", "setting": "small intestine; ref Trdan Lušin et al. (2012)", "result": "84.0 ± 6.0 nmol/h/mg microsomal protein"}, {"measurement": "Km", "setting": "liver [5]; read-out: Hepatic sulfation Km", "result": 10.1, "unit": "µM"}, {"measurement": "Hepatic sulfation vmax", "setting": "liver [5]", "result": "149^n nmol/h/g liver"}, {"measurement": "PTS richly perfused tissue/serum", "setting": "[6]; value for brain used", "result": 2.8}, {"measurement": "PTS slowly perfused tissue/serum", "setting": "[6]; value for muscle used", "result": 2.7}, {"measurement": "Oral uptake from small intestine to liver", "setting": "[7]; basic PBPK model, ref Kortejärvi et al. (2007)", "result": "2.10^a 1/h/kg BW^−0.25"}, {"measurement": "EHR as glucuronide", "setting": "[7]; [14]", "result": "0.20^f 1/h/kg BW^−0.25"}, {"measurement": "EHR unconjugated", "setting": "[7]; [14]", "result": "0.20^f 1/h/kg BW^−0.25"}, {"measurement": "Fraction of glucuronide in liver taken up directly into serum (no EHR)", "setting": "[7]; [14]", "result": "0.9^f"}, {"measurement": "Urinary excretion glucuronide", "setting": "[7]; [14]", "result": "0.35^f 1/h/kg BW^0.75"}, {"measurement": "Urinary excretion", "setting": "[7]; unconjugated, basic PBPK model, ref Yang et al. (2015)", "result": "0.060^f 1/h/kg BW^0.75"}, {"measurement": "EHR share", "setting": "[7]; used in BPA PBPK model, ref Yang et al. (2015)", "result": 10, "unit": "%"}, {"measurement": "AUC, mean (range), measured", "setting": "[8]", "result": "15.5 (0.986–23.2) nM*h for 1.5 h"}, {"measurement": "Cmax", "setting": "[8]", "result": 16.5, "unit": "nM"}, {"measurement": "logPow", "setting": "[9]; mean, ref Bayer 1996, Korenman 1973", "result": 3.36}, {"measurement": "pKa", "setting": "[9]; ref Bautista-Toledo et al. 2005", "result": "10.4 and ~10.4"}, {"measurement": "fetal plasma concentration, times higher than corresponding maternal plasma", "setting": "[10]", "result": "up to 7 times"}, {"measurement": "dermal absorption fraction", "setting": "[11]; dissolved in ethanol, used for PCPs, ref Biedermann et al. 2010", "result": 60, "unit": "%"}, {"measurement": "reported dermal absorption", "setting": "[11]; range over several studies, different study designs and solvents", "result": "9.3% to 60"}, {"measurement": "fu (unbound fraction)", "setting": "[12]", "result": 0.06}]}
